Reference: US20260174875A1 (Novo Nordisk A/S, priority 2023, published 2026)
Like-named read-outs stand apart in the source and are kept apart here. Numbered stars: 1 amine (or outer) side, 2 acyl side, 3 side chain; on linkers, the order of the positions; unused ones are H or OH. Square brackets hold non-standard residues; d marks the D form. Side chains are listed from the residue outwards. * marks the point of attachment. C20 diacid = O=C(O)CCCCCCCCCCCCCCCCCCC(=O)*; C18 diacid = O=C(O)CCCCCCCCCCCCCCCCC(=O)*; C16 diacid = O=C(O)CCCCCCCCCCCCCCC(=O)*; γGlu = O=C(O)[C@H](CCC(=O)[*:2])N[*:1]; AEEA = NCCOCCOCC(=O)O; Aib = CC(C)(N)C(=O)O

Legend:
Format in all cases: cell-based
[1] = biological target: T1, human GIP receptor (hGIPR) (Homo sapiens, UniProt P48546); assay: GIP receptor assay, method A (CRE-luciferase reporter, BHK cells)
T1 construct: expressed in transfected cells
T1 sequence (P48546 22-466): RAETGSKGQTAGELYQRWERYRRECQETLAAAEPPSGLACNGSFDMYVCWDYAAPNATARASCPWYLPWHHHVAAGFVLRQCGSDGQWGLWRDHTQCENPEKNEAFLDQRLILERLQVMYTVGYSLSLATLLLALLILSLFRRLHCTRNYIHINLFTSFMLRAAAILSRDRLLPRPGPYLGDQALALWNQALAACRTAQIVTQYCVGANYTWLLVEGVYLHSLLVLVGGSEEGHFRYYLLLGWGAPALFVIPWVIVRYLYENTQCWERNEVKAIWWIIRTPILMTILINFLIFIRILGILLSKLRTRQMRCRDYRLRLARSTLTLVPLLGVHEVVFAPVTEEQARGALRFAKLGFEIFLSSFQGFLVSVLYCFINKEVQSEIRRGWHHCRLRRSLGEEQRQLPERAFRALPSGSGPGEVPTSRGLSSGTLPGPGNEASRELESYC
Protocol: To assess how the activation of the receptors is potentially influenced by the presence of human serum albumin (HSA), the in vitro assays were performed in the absence of HSA and presence of 1% (w/v) HSA. Unless stated otherwise the reference to the “GIP receptor assay as described in Example 4” throughout the specification shall refer to the described herein assay procedure method A (hGIPR assay) in the absence of HSA.
Activation of the human GIP receptor leads to increased intra-cellular concentrations of cyclic AMP (cAMP) and the consequent transcription activation from promoters containing multiple copies of the cAMP response element (CRE). It is thus possible to measure GIP receptor activity using a CRE-luciferase reporter gene introduced into Baby Hamster Kidney (BHK) cells co-expressing the human GIP receptor.
Cells at about 80-90% confluency were washed once with PBS (Gibco 14190-094) and detached from the cell flasks with Versene (Gibco, 15040-066). After centrifugation, the cells were counted, resuspended and diluted to approximately 1.5-3.0×10^6 (1.5E+6 to 3.0E+6) cells/mL in Recovery Cell Culture Freezing Medium (Gibco, 12648-010) and stored at −180° C. in suitable aliquots until use.
(§1) The assay buffer consisted of DMEM without phenol red (Gibco, 11880-028) supplemented with 1× GlutaMAX (Gibco, 35050-038), 10 mM HEPES (Gibco, 15630-056), 1% (w/v) ovalbumin (Sigma, A5503) and 0.1% (v/v) Pluronic F-68 (Gibco, 24040-032) either with HSA or without HSA (Sigma, A9511).
On the day before the assay hGIPR BHK Cre-Luc cells were thawed and plated out in 96 well Culture Plates (PerkinElmer/Revvity, 6005680) at 5.0×10^3 (5.0E+3) cells/well in growth medium as described above. The plates were then incubated for 21-23 hours at 37° C. with 5% CO2. On the day of the assay GLP-1-/GIP-/amylin-receptor tri-agonists or reference compounds were diluted in assay buffer using a 7-point, 10-fold titration plus a blank (absence of compound). Each compound was diluted and tested in duplicates in each experiment. In the plates containing the cells the growth medium was removed, and cells were washed twice with 100 μL PBS (Gibco 14190-094). 50 μL of the test compound dilutions were added to the plates containing cells preceded by 50 μL assay buffer with or without 2% (w/v) HSA (Sigma, A9511). The cell plates were incubated for 3 hours in a 5% CO2 incubator at 37° C. The plates were then transferred to room temperature followed by addition of 100 μL steadylite Plus™ (PerkinElmer/Revvity, 6066759). The plates were sealed and shaken for 30 minutes at room temperature while protected from light. Finally, luminescence (as an indicator of receptor activation) was measured on a Mithras reader (Berthold Technologies, DE). The EC50-values [pM] were calculated by non-linear curve fitting applying a four-parameter logistic model (Hill slope=“shared value for all datasets”) using GraphPad Prism (GraphPad Software, Boston, MA, USA).

[2] = biological target: T2, human amylin receptor (hAMYR3) (Homo sapiens, UniProt O60896+P30988); assay: Amylin receptor assay, method A (CRE-luciferase reporter, BHK cells)
T2 construct: host or cells: BHK cells (Hollex-1 line expressing hCTR(a) and CRE-Luc), further transfected with human RAMP3
T2 sequence (P30988 25-474): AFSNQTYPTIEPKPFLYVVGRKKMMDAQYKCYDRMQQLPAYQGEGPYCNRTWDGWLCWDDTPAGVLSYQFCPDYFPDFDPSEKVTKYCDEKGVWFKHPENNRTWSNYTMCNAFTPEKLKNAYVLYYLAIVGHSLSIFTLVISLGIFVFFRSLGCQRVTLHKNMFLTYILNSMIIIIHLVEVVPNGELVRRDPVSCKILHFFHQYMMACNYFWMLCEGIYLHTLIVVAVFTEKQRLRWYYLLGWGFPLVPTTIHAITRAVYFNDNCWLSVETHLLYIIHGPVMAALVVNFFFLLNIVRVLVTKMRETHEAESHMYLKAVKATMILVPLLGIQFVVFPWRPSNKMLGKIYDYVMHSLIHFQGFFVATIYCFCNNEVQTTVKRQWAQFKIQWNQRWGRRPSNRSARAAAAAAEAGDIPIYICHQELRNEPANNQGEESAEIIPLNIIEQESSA
T2 sequence (O60896 24-148): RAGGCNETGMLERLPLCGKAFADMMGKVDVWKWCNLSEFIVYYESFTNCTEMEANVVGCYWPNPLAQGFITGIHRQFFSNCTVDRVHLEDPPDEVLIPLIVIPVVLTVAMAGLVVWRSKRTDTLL
Protocol: (§2) To assess how the activation of the receptors is potentially influenced by the presence of human serum albumin (HSA), the in vitro assays were performed in the absence of HSA and presence of 1% (w/v) HSA.
It is thus possible to measure hAMYR3 activity using a CRE-luciferase reporter gene introduced into Baby Hamster Kidney (BHK) cells co-expressing the hAMYR3.
The cell line was further transfected with human receptor modifying protein 3 (RAMP3) using standard methods.
After centrifugation, the cell pellet was resuspended and diluted to approximately 2.5-4.0×10^6 (2.5E+6 to 4.0E+6) cells/mL in Recovery™ Cell Culture Freezing Medium (Gibco, 12648-010). Cells were aliquoted and stored at −180° C. until use.
The assay buffer consisted of DMEM without phenol red (Gibco, 11880-028) supplemented with 1× GlutaMAX (Gibco, 35050-038), 10 mM HEPES (Gibco, 15630-056) and 1% (w/v) ovalbumin (Sigma, A5503) either with or without 0.1% (v/v) Pluronic F-68 (Gibco, 24040-032) and either with or without HSA (Sigma, A9511).
The plate was incubated over night at 37° C. in 5% CO2. […] Luminescence was detected on a luminescence plate reader e.g., a Synergy 2 (BioTek).

[3] = biological target: T3, human GLP-1 receptor (hGLP-1R) (Homo sapiens, UniProt P43220); assay: GLP-1 receptor assay, method A (CRE-luciferase reporter, BHK cells)
T3 construct: expressed in transfected cells
T3 sequence (P43220 24-463): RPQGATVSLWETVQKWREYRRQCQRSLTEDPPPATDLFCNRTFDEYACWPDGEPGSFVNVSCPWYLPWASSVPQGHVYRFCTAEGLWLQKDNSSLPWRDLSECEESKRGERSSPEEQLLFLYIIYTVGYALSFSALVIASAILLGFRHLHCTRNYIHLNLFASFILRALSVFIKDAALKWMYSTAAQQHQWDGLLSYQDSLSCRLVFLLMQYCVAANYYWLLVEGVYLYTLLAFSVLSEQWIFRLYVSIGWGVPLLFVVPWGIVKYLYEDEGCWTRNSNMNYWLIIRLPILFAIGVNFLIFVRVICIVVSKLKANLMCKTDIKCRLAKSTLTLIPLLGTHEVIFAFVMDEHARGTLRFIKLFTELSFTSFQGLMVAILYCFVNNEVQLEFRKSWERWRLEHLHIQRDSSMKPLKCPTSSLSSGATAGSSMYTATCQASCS
Protocol: as §2
Cells at approximately 80-90% confluence were washed once in PBS (Gibco 14190-094) and loosened from the cell flasks with Versene (Gibco, 15040-033). […] Cells were aliquoted and stored at −180° C. until use.
as §1
Frozen stocks of hGLP-1R BHK CRE-Luc cells were thawed in a 37° C. water bath, washed once in PBS (Gibco 14190-094) and diluted to 1.5×10^6 (1.5E+6) cells/mL in assay buffer with or without 2% (w/v) HSA (Sigma, A9511). […] The assay plates were incubated for 3 hours at 37° C. in 5% CO2, left at room temperature for 5 minutes after which 100 μL steadylite Plus™ (PerkinElmer/Revvity, 6066759) was added to each well. Plates were sealed and incubated at room temperature with gentle shaking for 30 minutes while protected from light. Luminescence was detected on a luminescence plate reader e.g., a Synergy 2 (BioTek).

[4] = hGIPR Potency, 1% HSA, EC50, method A, in the presence of 1% HSA
[5] = method A, absence of HSA, read-out: hGIPR Potency, no HSA, EC50
[6] = hAMYR3 Potency, 1% HSA, EC50, method A, in the presence of 1% HSA
[7] = method A, absence of HSA, read-out: hAMYR3 Potency, no HSA, EC50
[8] = hGLP-1R Potency, 1% HSA, EC50, method A, in the presence of 1% HSA
[9] = method A, absence of HSA, read-out: hGLP-1R Potency, no HSA, EC50
[10] = hGIPR Potency, no HSA, EC50, method A, absence of HSA
[11] = hAMYR3 Potency, no HSA, EC50, method A, absence of HSA
[12] = hGLP-1R Potency, no HSA, EC50, method A, absence of HSA

Row | Substance | EC50 [1, 4] [nM] | EC50 [1, 5] [nM] | EC50 [2, 6] [nM] | EC50 [2, 7] [nM] | EC50 [3, 8] [nM] | EC50 [3, 9] [nM] | EC50 [1, 10] [nM] | EC50 [2, 11] [nM] | EC50 [3, 12] [nM]
1 | Y[Aib]EGTFTSDYSILLEEQAAREFIEWLLAGGPSK([AEEA-AEEA-γGlu-C18 diacid])GGQEPGQEPGEASHLSTAQTQRLSAELHELATLPRTETGSGSP-NH2 [Compound 39] | 0.352 | 0.00162 | 0.14 | 0.00575 | 1.93 | 0.0237 | – | – | –
2 | Y[Aib]EGTFTSDYSILLEEQAAREFIEWLLAGGPSSGALAQTLAQTLASHLSTAQTQRLSAELHK([AEEA-AEEA-γGlu-C16 diacid])LATLPRTETGSGSP-NH2 [Compound 59] | 0.0272 | 0.00772 | 0.0242 | 0.00385 | 0.0397 | 0.0506 | – | – | –
3 | H[Aib]HGTFTSDYSILLEEQAAREFIEWLLAGGPSK([AEEA-AEEA-γGlu-C18 diacid])GEASELSTAALGRLSAELHRLATLPRTETGSGSP-NH2 [Compound 25] | – | 0.00427 | – | 0.00322 | – | 0.00287 | – | – | –
4 | Y[Aib]EGTFTSDYSILLEEQAAREFIEWLLAGGPSK([γGlu-C20 diacid])GAPPPSGGGEASELSTAALGRLSAELHRLADLPRTETGSGSP-NH2 [Compound 41] | – | – | – | – | – | – | 0.00502 | 0.00672 | 0.0408
5 | H[Aib]HGTFTSDYSILLEEQAAREFIEWLLAGGPSK([AEEA-AEEA-γGlu-C18 diacid])GAPPPSGGGEASELSTAALGRLSAELHRLATLPRTETGSGSP-NH2 [Compound 30] | – | 0.0068 | – | 0.00228 | – | 0.00637 | – | – | –
6 | Y[Aib]EGTFTSDYSILLEEQAAREFIEWLLAGGPSSGAGQAPGQAPGASHLSTAALARLSAELHK([AEEA-AEEA-γGlu-C18 diacid])LATLPRTETGSGSP-NH2 [Compound 114] | 0.0172 | 0.00429 | 0.0452 | 0.00227 | 0.126 | 0.0433 | – | – | –
7 | H[Aib]HGTFTSDYSILLEEQAAREFIEWLLAGGPSRGAPPPSGGGEASHLSTQTQGRLSAELHK([AEEA-AEEA-γGlu-C18 diacid])LATLPRTETGSGSP-NH2 [Compound 71] | 0.00928 | 0.00277 | 0.274 | 0.00866 | 0.0184 | 0.00334 | – | – | –
8 | H[Aib]HGTFTSDYSILLEEQAAREFIEWLLAGGPSSGEASHLSTAALGRLSAELHK([AEEA-AEEA-γGlu-C18 diacid])LATLPRTETGSGSP-NH2 [Compound 88] | 0.0404 | 0.00568 | 0.102 | 0.0037 | 0.0488 | 0.00412 | – | – | –
9 | H[Aib]HGTFTSDYSILLEEQAAREFIEWLLAGGPSK([AEEA-AEEA-γGlu-C18 diacid])GEASQLSTAALGRLSAELHRLADLPRTETGSGSP-NH2 [Compound 43] | 0.186 | – | 0.0565 | – | 0.0415 | – | 0.00438 | 0.00313 | 0.00431
10 | H[Aib]HGTFTSDYSILLEEQAAREFIEWLLAGGPSK([γGlu-C18 diacid])GAPPPSGGGEASHLSTAQTARLSAELHRLADLPRTETGSGSP-NH2 [Compound 112] | 0.321 | – | 0.269 | – | 0.336 | – | 0.00242 | 0.00365 | 0.00437
11 | Y[Aib]EGTFTSDYSILLEEQAAREFIEWLLAGGPSSGALAQTLAQTLASHLSTAQTQRLSAELHK([AEEA-AEEA-γGlu-C18 diacid])LATLPRTETGSGSP-NH2 [Compound 48] | 0.054 | 0.00702 | 0.0785 | 0.0032 | 0.105 | 0.0648 | – | – | –
12 | Y[Aib]EGTFTSDYSILLEEQAAREFIEWLLAGGPSK([AEEA-AEEA-γGlu-C18 diacid])GALAQTLAQTLASELSTAALGRLSAELHELATLPRTETGSGSP-NH2 [Compound 21] | – | 0.00863 | – | 0.012 | – | 0.0412 | – | – | –
13 | Y[Aib]EGTFTSDYSILLEEQAAREFIEWLLAGGPSSGEASHLSTAQTQRLSAELHRLATLPK([AEEA-AEEA-γGlu-C18 diacid])TETGSGSP-NH2 [Compound 81] | 0.0158 | 0.00331 | 0.188 | 0.00407 | 0.0514 | 0.016 | – | – | –
14 | Y[Aib]EGTFTSDYSILLEEQAAREFIEWLLAGGPSK([AEEA-AEEA-γGlu-C18 diacid])GEASHLSTAQTQRLSAELHELATLPRTETGSGSP-NH2 [Compound 34] | – | 0.0017 | – | 0.00681 | – | 0.0217 | – | – | –
